This is an account of results in paper PMC4801481 (Biochemistry, 2015).

Like-named read-outs stand apart in the source and are kept apart here.

Data set [1] in a line: Solubility of Rev protein. The note with it: in the absence of RNA. It is filed as physicochemical.
The conditions of data set [2]: in the absence of high salt; cited from earlier work.
The test system of data set [3] is stem IA (HIV-1 RRE RNA hairpin). The data set is described as follows: NMR of Rev complexes with stem IA. The note with it: 288 K. Format: binding.
Data set [4] relates to stem IIB (HIV-1 RRE RNA hairpin). The data set is described as follows: NMR of Rev complexes with stem IIB. Format: binding. The note with it: 288 K.

Regarding “Rev protein: viral regulatory protein Rev of HIV-1”, the solubility result in data set [1] is given as “poor solubility of Rev in the absence of RNA”; in data set [2] it was “poorly soluble in the absence of high salt”.
With “RevDO: Truncated HIV-1 Rev (residues 9–64) with mutated dimerization (L12 → S, L60 → R) and higher-order oligomerization (L18 → Q, I55 → N) surfaces”, the “RNA imino resonances on RevDO binding” value is “almost identical to those obtained with the Rev–ARM peptide” in data set [3] (1D 1H NMR, pH 6.5, 0.1 M KCl) and “almost identical to those obtained with the Rev–ARM peptide” in data set [4] (1D 1H NMR, pH 6.5, 0.1 M KCl). Besides, the “number of backbone amide resonances” value was roughly 40 backbone amide resonances in data set [3] (1H–15N HSQC, 15N-RevDO bound to IA, 0.4 mM, pH 6.5) and roughly 50 backbone amide resonances in data set [4] (1H–15N HSQC, 15N-RevDO bound to IIB, 0.4 mM, pH 6.5). In addition, the “arginine Hε protons” value in data set [3] (1H–15N HSQC, RevDO bound to IA) was “mostly absent with IA”; in data set [4] (1H–15N HSQC, RevDO bound to IIB), “well resolved with IIB”. Further, the “1H–15N HSQC peak appearance” value in data set [3] (15N-RevDO bound to IA, 0.4 mM, pH 6.5) was “fewer, broader peaks”; in data set [4] (15N-RevDO bound to IIB, 0.4 mM, pH 6.5), “reasonably well-resolved peaks”. For the same substance, the “imino proton of Trp45” value in data set [4] (1H–15N HSQC, RevDO complexes, IIB versus IA) is “observed only with IIB”.
